Test results: ChEMBL document CHEMBL1201862, “PubChem BioAssay data set” (2004)
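Step 1: Grow cells in 96-well plates. Step 2: Expose to compound for 48 hours at 5 concentrations. Step 3: Interpolate endpoints linearly; if unreached, use highest concentration. GI50: concentration for 50% inhibition of growth.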 The source made the active and inactive calls. No stated cut-off is given here; in the data, active = GI50 up to about 1.1 µM and inactive = higher.

Columns and labels:
Experiment in all cases: growth of human tumour cells (NCI), 48 h
COLO 205 = system: COLO 205
HCC 2998 = system: HCC 2998
HOP-62 = system: HOP-62
Hs-578T = system: Hs-578T
KM12 = system: KM12
LOX IMVI = system: LOX IMVI
MCF7 = system: MCF7
MDA-N = system: MDA-N
MOLT-4 = system: MOLT-4
Malme-3M = system: Malme-3M
OVCAR-3 = system: OVCAR-3
RPMI-8226 = system: RPMI-8226
RXF 393 = system: RXF 393
SK-MEL-2 = system: SK-MEL-2
SK-MEL-5 = system: SK-MEL-5
SN12C = system: SN12C
SNB-75 = system: SNB-75
SR = system: SR
TK-10 = system: TK-10

Which results are given for `CC(O)CC(O)(C(F)(F)F)C(F)(F)F` (stereo not given)?
GI50 (COLO 205): > 10 µM (inactive); GI50 (HCC 2998): > 10 µM (inactive); GI50 (HOP-62): > 10 µM (inactive); GI50 (Hs-578T): > 10 µM (inactive); GI50 (KM12): > 10 µM (inactive); GI50 (LOX IMVI): > 10 µM (inactive); GI50 (MCF7): > 10 µM (inactive); GI50 (MDA-N): > 10 µM (inactive); GI50 (MOLT-4): > 10 µM (inactive); GI50 (Malme-3M): > 10 µM (inactive); GI50 (OVCAR-3): > 10 µM (inactive); GI50 (RPMI-8226): > 10 µM (inactive); GI50 (RXF 393): > 10 µM (inactive); GI50 (SK-MEL-2): > 10 µM (inactive); GI50 (SK-MEL-5): > 10 µM (inactive); GI50 (SN12C): > 10 µM (inactive); GI50 (SNB-75): > 10 µM (inactive); GI50 (SR): > 10 µM (inactive); GI50 (TK-10): > 10 µM (inactive)

For `CC(C)(C)c1cc2ccc(C(N)=O)cc2c(=O)[nH]1`, which GI50 (COLO 205) is on record?
Its GI50 is > 100 µM (inactive).

What about the GI50 (HCC 2998) of the same compound?
The GI50 was > 100 µM (inactive).

And the GI50 (HOP-62)?
Its GI50 is > 100 µM (inactive).

What about the GI50 (KM12) of the same compound?
The GI50 was 59.3 µM (inactive).

And the GI50 (LOX IMVI)?
The GI50 was 62.7 µM (inactive).

What about the GI50 (MOLT-4) of the same compound?
The GI50 was > 100 µM (inactive).

What about the GI50 (Malme-3M) of the same compound?
The GI50 was > 100 µM (inactive).

What about the GI50 (OVCAR-3) of the same compound?
The GI50 was > 100 µM (inactive).

And the GI50 (RXF 393)?
The GI50 was 44.9 µM (inactive).

And the GI50 (SK-MEL-2)?
The GI50 was > 100 µM (inactive).

What about the GI50 (SK-MEL-5) of the same compound?
The GI50 was > 100 µM (inactive).

What about the GI50 (SN12C) of the same compound?
Its GI50 is > 100 µM (inactive).

What about the GI50 (SNB-75) of the same compound?
Its GI50 is 27.2 µM (inactive).

What about the GI50 (SR) of the same compound?
Its GI50 is > 100 µM (inactive).

And the GI50 (TK-10)?
The GI50 was > 100 µM (inactive).

Which results are given for `COc1c(C(C)C)cc2c3c1OC(=O)[C@@]31CCCC(C)(C)C1CC2` (stereo not given in full)?
GI50 (COLO 205): 17.3 µM (inactive); GI50 (HCC 2998): 50.2 µM (inactive); GI50 (HOP-62): 39.4 µM (inactive); GI50 (LOX IMVI): 12.5 µM (inactive); GI50 (MOLT-4): 25.1 µM (inactive); GI50 (Malme-3M): 27.2 µM (inactive); GI50 (OVCAR-3): 20.5 µM (inactive); GI50 (RPMI-8226): 18.9 µM (inactive); GI50 (RXF 393): 17.3 µM (inactive); GI50 (SK-MEL-2): 28.1 µM (inactive); GI50 (SK-MEL-5): 11.2 µM (inactive); GI50 (SN12C): 51.9 µM (inactive); GI50 (SNB-75): 22 µM (inactive); GI50 (SR): 16.9 µM (inactive); GI50 (TK-10): 25.2 µM (inactive)

`CCc1cc(-c2nsc(=O)o2)c(S(=O)(=O)CC)s1` was tested. Which GI50 (COLO 205) did it give?
The GI50 was > 100 µM (inactive).

And the GI50 (HCC 2998)?
Its GI50 is 37.2 µM (inactive).

And the GI50 (HOP-62)?
The GI50 was > 100 µM (inactive).

What about the GI50 (Hs-578T) of the same compound?
Its GI50 is > 100 µM (inactive).

What about the GI50 (KM12) of the same compound?
The GI50 was 38.4 µM (inactive).

What about the GI50 (LOX IMVI) of the same compound?
Its GI50 is 56.6 µM (inactive).

What about the GI50 (MCF7) of the same compound?
Its GI50 is 26.7 µM (inactive).

What about the GI50 (MDA-N) of the same compound?
Its GI50 is 75 µM (inactive).

And the GI50 (MOLT-4)?
The GI50 was > 10 µM (inactive).

What about the GI50 (OVCAR-3) of the same compound?
The GI50 was > 100 µM (inactive).

What about the GI50 (RPMI-8226) of the same compound?
Its GI50 is 49.4 µM (inactive).

What about the GI50 (SK-MEL-2) of the same compound?
The GI50 was 95.5 µM (inactive).

And the GI50 (SK-MEL-5)?
Its GI50 is > 100 µM (inactive).

What about the GI50 (SN12C) of the same compound?
The GI50 was > 100 µM (inactive).

And the GI50 (SNB-75)?
The GI50 was > 100 µM (inactive).

What about the GI50 (SR) of the same compound?
Its GI50 is 38.3 µM (inactive).

And the GI50 (TK-10)?
The GI50 was > 100 µM (inactive).

How did the GI50 (COLO 205) turn out when `CCC1(C)NN=c2s/c(=C/c3ccc(OC)cc3)c(=O)n2N1` (stereo not given) was run?
Its GI50 is > 100 µM (inactive).

And the GI50 (HCC 2998)?
Its GI50 is > 100 µM (inactive).

And the GI50 (HOP-62)?
The GI50 was > 100 µM (inactive).

What about the GI50 (KM12) of the same compound?
Its GI50 is > 100 µM (inactive).

What about the GI50 (LOX IMVI) of the same compound?
The GI50 was > 100 µM (inactive).

What about the GI50 (MOLT-4) of the same compound?
Its GI50 is > 100 µM (inactive).

What about the GI50 (Malme-3M) of the same compound?
The GI50 was > 100 µM (inactive).

And the GI50 (OVCAR-3)?
The GI50 was 80.4 µM (inactive).

What about the GI50 (RXF 393) of the same compound?
The GI50 was 49.4 µM (inactive).

And the GI50 (SK-MEL-2)?
Its GI50 is > 100 µM (inactive).

And the GI50 (SK-MEL-5)?
Its GI50 is > 100 µM (inactive).

And the GI50 (SN12C)?
The GI50 was > 100 µM (inactive).

What about the GI50 (SNB-75) of the same compound?
The GI50 was 38.2 µM (inactive).

What about the GI50 (SR) of the same compound?
Its GI50 is > 100 µM (inactive).

And the GI50 (TK-10)?
Its GI50 is > 100 µM (inactive).

For `CCCCCCC(=O)OC[n+]1ccc2c(C)c3[nH]c4ccc(OC)cc4c3c(C)c2c1`, which GI50 (COLO 205) is on record?
Its GI50 is 0.207 µM (active).

And the GI50 (HCC 2998)?
Its GI50 is 0.421 µM (active).

What about the GI50 (HOP-62) of the same compound?
Its GI50 is 0.105 µM (active).

And the GI50 (Hs-578T)?
The GI50 was 1.32 µM (inactive).

And the GI50 (KM12)?
The GI50 was 0.186 µM (active).

What about the GI50 (LOX IMVI) of the same compound?
Its GI50 is 0.217 µM (active).

And the GI50 (MCF7)?
Its GI50 is 0.214 µM (active).

And the GI50 (MDA-N)?
Its GI50 is 0.324 µM (active).

And the GI50 (MOLT-4)?
Its GI50 is 0.0378 µM (active).

And the GI50 (Malme-3M)?
Its GI50 is 1.01 µM (active).

And the GI50 (OVCAR-3)?
The GI50 was 1.57 µM (inactive).

What about the GI50 (RPMI-8226) of the same compound?
Its GI50 is 0.0548 µM (active).

What about the GI50 (RXF 393) of the same compound?
Its GI50 is 0.247 µM (active).

What about the GI50 (SK-MEL-2) of the same compound?
The GI50 was 1.33 µM (inactive).

And the GI50 (SK-MEL-5)?
The GI50 was 1.16 µM (inactive).

What about the GI50 (SN12C) of the same compound?
The GI50 was 0.0625 µM (active).

What about the GI50 (SNB-75) of the same compound?
The GI50 was 1.13 µM (inactive).

What about the GI50 (SR) of the same compound?
Its GI50 is 0.0486 µM (active).

What about the GI50 (TK-10) of the same compound?
Its GI50 is 2.05 µM (inactive).
